Test results published in patent US20060018981A1, “Sanitization process by using bacteriostatic or bactericidal products derived from vegetables” (priority 2004, published 2006).

Type: physicochemical
Description: Substances B and C Evaporation Rate at Room Temperature Substances B and C were inserted in a thermostated chamber at room temperature and the substance weight/surface ratio for both of them was evaluated. Both substances B and C, alone or in mixture with a gel, were controlled and the loss of weight versus time was recorded. The resulting data of the test were interpolated so as to obtain two algorithms indicating, respectively, the evaporation rate of B and C. To this end two different interpolation methods were used. The algorithm adopted for the first interpolation method is: po/[…] uti (1) The algorithm adopted for the second interpolation method is: po/p=(A×T1⁄2)/(T1⁄2+min uti) (2) Parameters used in algorithms (1) and (2) have the following meaning: p: initial weight of the antibacterial substances expressed in g; po: weight of the antibacterial substances at time t, expressed in g; a, b, A: correlation parameters; and T1⁄2: half-life time of the antibacterial substances.

Substance	parameter T1/2 (half-life time of the antibacterial substances)
lavender oil [C: lavender oil]	46856
silvester pine oil [B: silvester pine oil]	854737
